# Read-outs that look alike come from different tables or passages of the source. Where no end group is shown, it is not given here.
# Experiments:
# [1] = tested on: bacterial cells; conditions: cited from earlier work
# [2] = target: peptide 33 (bacteriophage P4 (designed variant)) (UniProt P05460); assay: competition; conditions: EMSA/competition: 10 mM Tris-HCl pH 8.0, 250 mM NaCl, 37 C, 10 min, 10 nM labeled nucleic acid, fluorescence: 10 mM Tris-Cl pH 8, 500 mM NaCl, 20-37 C, scale: fold excess over 292 bp dsDNA for 50% release
# [3] = target: peptide 33 (bacteriophage P4 (designed variant)) (UniProt P05460); assay: EMSA; conditions: EMSA/competition: 10 mM Tris-HCl pH 8.0, 250 mM NaCl, 37 C, 10 min, 10 nM labeled nucleic acid, fluorescence: 10 mM Tris-Cl pH 8, 500 mM NaCl, 20-37 C
# [4] = tested on: E. coli; conditions: also cause cell death; ref [29]; cited from earlier work
# Text: (§1) AMPs are prevalent in all forms of life. They are part of the natural defense mechanism of the organism. […] Another such small peptide that has the potential to be useful against drug-resistant bac ...
# [5] = tested on: dsDNA; conditions: ref [30], [31], [32]; cited from earlier work
# Text: as §1
# [6] = tested on: bacteria; conditions: acts by blocking the synthesis of macromolecules; ref [28]; cited from earlier work
# Text: as §1
molecule,measurement,setting,value
O=C(O)c1cn(C2CC2)c2cc(N3CCNCC3)c(F)cc2c1=O [ciprofloxacin],elongated cell phenotype,[1]; ref [19],elongated cells phenotypes
lambda tR1 RNA (284 nt),binding signal,[2],2.8
ATCTTCTCTCATCCGCCAAAACAGCC [26-mer ssDNA (RS1816)],Kd,[3],2000 nM
O=C(N[C@H](CO)[C@H](O)c1ccc([N+](=O)[O-])cc1)C(Cl)Cl [chloramphenicol],elongated cell phenotype,"[1]; ref [21], [22]",elongated cells phenotypes
283 nt gfc RNA,Kd,[3],1000 nM
HNP-1: human neutrophils-derived peptide defensin,"inhibition of DNA, RNA, and protein synthesis",[4],"inhibit the synthesis of DNA, RNA, and proteins"
160 bp dsDNA,Kd,[3],4000 nM
NC[C@H]1O[C@H](O[C@H]2[C@H](O)[C@@H](O[C@H]3O[C@H](CO)[C@@H](O)[C@H](N)[C@H]3O)[C@H](N)C[C@@H]2N)[C@H](O)[C@@H](O)[C@@H]1O [kanamycin],elongated cell phenotype,[1]; ref [20],elongated cells phenotypes
"indolicidin: 13-mer peptide with tryptophan-rich sequences of the cathelicidin family of host defense peptides (ILPWKWPWWPWRR; ends and bridges not checked; UniProt P33046 131-143, looked up)",binding to dsDNA,[5],binds to dsDNA
TGATCCTCCTCCTCCTGATCCTCCTCCTCCTGATCCTCCTCCTCCTGAGCGTTTCATCATTTCGAAGAAATCGTC [75-mer ssDNA (RS2230)],binding signal,[2],9.5
same,Kd,[3],740 nM
"HNP-2: human neutrophils-derived peptide defensin (CYCRIPACIAGERRYGTCIYQGRLWAFCC; ends and bridges not checked; cysteine pairing not given here; UniProt P59665 66-94, looked up)","inhibition of DNA, RNA, and protein synthesis",[4],"inhibit the synthesis of DNA, RNA, and proteins"
NCC[C@H](O)C(=O)N[C@@H]1C[C@H](N)[C@@H](O[C@H]2O[C@H](CN)[C@@H](O)[C@H](O)[C@H]2O)[C@H](O)[C@H]1O[C@H]1O[C@H](CO)[C@@H](O)[C@H](N)[C@H]1O [amikacin],elongated cell phenotype,[1]; ref [21],elongated cells phenotypes
292 bp dsDNA,Kd,[3],2750 nM
HNP-3: human neutrophils-derived peptide defensin,"inhibition of DNA, RNA, and protein synthesis",[4],"inhibit the synthesis of DNA, RNA, and proteins"
499 bp dsDNA,Kd,[3],4700 nM
gentamycin,elongated cell phenotype,[1]; ref [23],elongated cells phenotypes
Pleurocidin,antibacterial activity,[6],broad-spectrum antibacterial activity

# Reference: publication PMC10692717, “Peptides designed from a bacteriophage capsid protein function as synthetic transcription repressors” (The Journal of Biological Chemistry, 2023)
